This is an account of results in patent US9649309B2 (priority 2014, dated 2017).

Experiment [1] concerns the target T1, Axl (Homo sapiens (Human), UniProt P30530). The experiment can be described thus: biochemical.
Experiment [2] deals with T2, Tyro3 (Homo sapiens (Human), UniProt Q06418). The experiment can be described thus: biochemical.
Experiment [3] deals with T1, Axl. The note with it: read-out: IC50 Axl.
Experiment [4] concerns the target T2, Tyro3. The note with it: read-out: IC50 Tyro3.

Read-outs that look alike come from different tables or passages of the source.

T2 sequence (Q06418 41-890 limits assumed): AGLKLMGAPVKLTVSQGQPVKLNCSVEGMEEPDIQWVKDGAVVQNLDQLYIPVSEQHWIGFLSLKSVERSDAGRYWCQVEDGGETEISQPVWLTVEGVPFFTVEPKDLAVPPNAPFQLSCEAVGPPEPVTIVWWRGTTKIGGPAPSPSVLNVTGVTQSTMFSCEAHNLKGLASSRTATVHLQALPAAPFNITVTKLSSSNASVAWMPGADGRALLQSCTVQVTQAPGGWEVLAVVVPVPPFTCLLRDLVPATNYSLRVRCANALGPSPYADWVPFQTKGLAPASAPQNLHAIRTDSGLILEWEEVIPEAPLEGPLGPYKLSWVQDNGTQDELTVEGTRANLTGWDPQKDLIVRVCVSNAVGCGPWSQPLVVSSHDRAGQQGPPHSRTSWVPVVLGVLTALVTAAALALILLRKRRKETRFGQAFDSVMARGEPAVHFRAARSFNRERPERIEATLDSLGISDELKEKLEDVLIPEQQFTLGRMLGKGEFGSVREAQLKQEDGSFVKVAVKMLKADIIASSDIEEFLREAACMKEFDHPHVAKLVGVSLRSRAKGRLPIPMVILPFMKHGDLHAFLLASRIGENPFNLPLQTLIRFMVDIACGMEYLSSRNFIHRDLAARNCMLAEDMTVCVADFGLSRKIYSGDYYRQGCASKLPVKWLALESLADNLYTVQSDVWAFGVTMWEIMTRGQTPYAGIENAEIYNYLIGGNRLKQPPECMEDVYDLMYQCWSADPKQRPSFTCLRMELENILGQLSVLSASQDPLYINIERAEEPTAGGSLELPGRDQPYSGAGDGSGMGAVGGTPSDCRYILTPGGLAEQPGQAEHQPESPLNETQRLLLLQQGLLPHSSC
T1 sequence (P30530 26-894 limits assumed): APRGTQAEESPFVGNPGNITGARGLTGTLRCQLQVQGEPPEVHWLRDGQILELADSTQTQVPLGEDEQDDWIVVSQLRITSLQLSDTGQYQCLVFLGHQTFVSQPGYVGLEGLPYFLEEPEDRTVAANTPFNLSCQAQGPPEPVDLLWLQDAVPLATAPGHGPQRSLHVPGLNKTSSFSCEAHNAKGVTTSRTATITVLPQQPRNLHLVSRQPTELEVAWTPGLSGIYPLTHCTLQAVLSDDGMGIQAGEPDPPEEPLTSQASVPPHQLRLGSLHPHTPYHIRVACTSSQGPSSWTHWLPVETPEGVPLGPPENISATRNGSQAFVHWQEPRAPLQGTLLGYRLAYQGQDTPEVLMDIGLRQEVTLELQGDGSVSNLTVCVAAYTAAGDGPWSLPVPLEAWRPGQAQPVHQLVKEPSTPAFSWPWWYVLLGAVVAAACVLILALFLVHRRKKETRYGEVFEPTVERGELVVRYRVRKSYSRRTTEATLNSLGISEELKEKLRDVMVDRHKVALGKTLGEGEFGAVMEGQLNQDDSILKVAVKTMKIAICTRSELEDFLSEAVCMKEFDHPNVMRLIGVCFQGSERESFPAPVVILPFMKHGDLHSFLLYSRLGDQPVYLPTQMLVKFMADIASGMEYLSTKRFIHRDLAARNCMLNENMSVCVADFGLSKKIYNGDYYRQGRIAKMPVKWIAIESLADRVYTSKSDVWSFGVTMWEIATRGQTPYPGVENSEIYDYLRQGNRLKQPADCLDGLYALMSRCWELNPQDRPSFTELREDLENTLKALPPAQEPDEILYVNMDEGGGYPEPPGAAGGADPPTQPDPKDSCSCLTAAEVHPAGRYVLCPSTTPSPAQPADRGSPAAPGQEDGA

Consider `CCCCNc1ncc(C(=O)NCCCN2CCOCC2)c(N[C@H]2CC[C@H](O)CC2)n1` [UNC1839A], for which the IC50 stood at 951 nM at Axl [1] and 1070 nM at Tyro3 [2].

Consider `CCCCNc1ncc(C(=O)NCCCCO)c(N[C@H]2CC[C@H](O)CC2)n1` [UNC1844A], for which the figures for the IC50 at Axl [1] and at Tyro3 [2] were 1180 nM and 1080 nM, respectively.

For `CCCCNc1ncc(C(=O)Nc2ccc(CCO)cc2)c(N[C@H]2CC[C@H](O)CC2)n1` [UNC1846A], the IC50 against Axl [1] is 1190 nM; at Tyro3 [2] it was 1070 nM.

For `CCCCNc1ncc(C(=O)NCc2ccncc2)c(N[C@H]2CC[C@H](O)CC2)n1` [UNC1849A], the IC50 against Axl [1] is 1260 nM; on Tyro3 [2], 1740 nM.

On to `CCCCNc1ncc(C(=O)NCCc2ccc(F)cc2)c(N[C@H]2CC[C@H](O)CC2)n1` [UNC1850A], for which the IC50 against Axl [1] turned out to be 1640 nM; at Tyro3 [2], 1210 nM.

For `CCCCNc1ncc(-c2ccc(CN3CCCN(C)CC3)cn2)c(N[C@H]2CC[C@H](O)CC2)n1` [UNC2405A], the figures for the half-maximal inhibitory concentration (IC50) on Axl [1] and against Tyro3 [2] were 183 nM and 98 nM, respectively.

On to `CCCCNc1ncc(-c2ccc(CN3CCCC3)cn2)c(N[C@H]2CC[C@H](O)CC2)n1` [UNC2490A], for which the IC50 is 36 nM at Axl [1] and 18 nM against Tyro3 [2].

Turning to `CCCCNc1ncc(-c2ccc(CNCC3CC3)cn2)c(N[C@H]2CC[C@H](O)CC2)n1` [UNC2547A], the IC50 against Axl [1] was 30 nM; at Tyro3 [2] it was 11 nM.

For `CCCCNc1ncc(-c2ccc(CNCc3ccncc3)cn2)c(N[C@H]2CC[C@H](O)CC2)n1` [UNC2571A], the IC50 against Axl [1] came out at 44 nM; against Tyro3 [2], 18 nM.

On to `CCCCNc1ncc(-c2ccc(CNCc3ccccc3)cn2)c(N[C@H]2CC[C@H](O)CC2)n1` [UNC2572A], for which the results for the IC50 against Axl [1] and at Tyro3 [2] were 136 nM and 43 nM, respectively.

In the case of `CCCCNc1ncc(-c2cccc(CN3CCN(C)CC3)n2)c(N[C@H]2CC[C@H](O)CC2)n1` [UNC2622A], the figures for the IC50 at Axl [1] and against Tyro3 [2] were 296 nM and 162 nM, respectively.

For `CCCCNc1ncc(C(=O)NC2CC(C)(C)N(C)C(C)(C)C2)c(N[C@H]2CC[C@H](O)CC2)n1` [UNC2695A], the IC50 against Axl [1] came to 233 nM; at Tyro3 [2] it was 76 nM.

As for `CCCCNc1ncc(C(=O)NC2CCN(C3CCN(C)CC3)CC2)c(N[C@H]2CC[C@H](O)CC2)n1` [UNC2698A], the IC50 is 175 nM against Axl [1] and 43 nM against Tyro3 [2].

As to `CCCCNc1ncc(C(=O)NC2CCCCCC2)c(N[C@H]2CC[C@H](O)CC2)n1` [UNC2734A], the figures for the IC50 on Axl [1] and at Tyro3 [2] were 665 nM and 505 nM, respectively.

For `CCCCNc1ncc(C(=O)NCc2ccc(CN3CCOCC3)cc2)c(N[C@H]2CC[C@H](O)CC2)n1` [UNC2735A], the results for the IC50 against Axl [1] and on Tyro3 [2] were 189 nM and 145 nM, respectively.

For `CCCCNc1ncc(C(=O)NC2CCC2)c(N[C@H]2CC[C@H](O)CC2)n1` [UNC2737A], the half-maximal inhibitory concentration (IC50) on Axl [1] was found to be 491 nM; on Tyro3 [2], 443 nM.

On to `CCCCNc1ncc(C(=O)NCC2CCN(C)CC2)c(N[C@H]2CC[C@H](O)CC2)n1` [UNC2742A], for which the IC50 turned out to be 534 nM against Axl [1] and 247 nM on Tyro3 [2].

`CCCCNc1ncc(C(=O)NCC2CCN(C3CCCC3)CC2)c(N[C@H]2CC[C@H](O)CC2)n1` [UNC2743A]: the IC50 was found to be 166 nM at Axl [1] and 84 nM against Tyro3 [2].

Turning to `CCCCNc1ncc(C(=O)NCC2CCNCC2)c(N[C@H]2CC[C@H](O)CC2)n1` [UNC4287A], the IC50 on Axl [3] was found to be 960 nM; at Tyro3 [4], 494 nM.

`CCCCNc1ncc(C(=O)NCC2CCN(C(C)=O)CC2)c(N[C@H]2CC[C@H](O)CC2)n1` [UNC4288A]: the half-inhibitory concentration (IC50) came to 1050 nM at Axl [3] and 262 nM at Tyro3 [4].

Turning to `CCCCNc1ncc(C(=O)NCC2CCN(C(C)C)CC2)c(N[C@H]2CC[C@H](O)CC2)n1` [UNC4289A], the IC50 on Axl [3] is 420 nM; on Tyro3 [4], 178 nM.

For `CCCCNc1ncc(C(=O)NCC2CCN(C3CCCCC3)CC2)c(N[C@H]2CC[C@H](O)CC2)n1` [UNC4302A], the IC50 worked out at 292 nM at Axl [3] and 153 nM at Tyro3 [4].

On to `C=CCN1CCC(CNC(=O)c2cnc(NCCCC)nc2N[C@H]2CC[C@H](O)CC2)CC1` [UNC4303A], for which the IC50 on Axl [3] was found to be 777 nM; on Tyro3 [4], 486 nM.

With `CCCCNc1ncc(C(=O)NCC2CCN(c3ccccc3)CC2)c(N[C@H]2CC[C@H](O)CC2)n1` [UNC4304A], the IC50 on Axl [3] came out at 664 nM; on Tyro3 [4], 333 nM.

Consider `CCCCNc1ncc(C(=O)NCc2cncnc2)c(N[C@H]2CC[C@H](O)CC2)n1` [UNC4307A], for which the IC50 on Axl [3] was found to be 471 nM; on Tyro3 [4], 217 nM.

Take `CCCCNc1ncc(-c2cc(Nc3cccc([N+](=O)[O-])c3)ncn2)c(N[C@H]2CC[C@H](O)CC2)n1` [UNC4322A]: the IC50 was found to be 30000 nM on Axl [3] and 889 nM on Tyro3 [4].

Turning to `CCCCNc1ncc(-c2cc(Nc3cccc(C(C)C)c3)ncn2)c(N[C@H]2CC[C@H](O)CC2)n1` [UNC4323A], the IC50 turned out to be 30000 nM on Axl [3] and 619 nM at Tyro3 [4].

For the compound `CCCCNc1ncc(-c2cc(Nc3cccc(C(C)(C)C)c3)ncn2)c(N[C@H]2CC[C@H](O)CC2)n1` [UNC4333A], the IC50 was 30000 nM at Axl [3] and 867 nM on Tyro3 [4].

In the case of `CCCCNc1ncc(-c2ccc(CC3CCNCC3)cn2)c(N[C@H]2CC[C@H](O)CC2)n1` [UNC4335A, trans-4-((2-(butylamino)-5-(5-(piperidin-4-ylmethyl)pyridin-2-yl)pyrimidin-4-yl)amino)cyclohexan-1-ol], the IC50 worked out at 137 nM at Axl [3] and 56 nM on Tyro3 [4].

As to `CCCCNc1ncc(-c2ccc(C=C3CCNCC3)cn2)c(N[C@H]2CC[C@H](O)CC2)n1` [UNC4336A], the IC50 at Axl [3] was 40 nM; at Tyro3 [4], 13 nM.

Turning to `CCCCNc1ncc(-c2ccc(C=C3CCN(C)CC3)cn2)c(N[C@H]2CC[C@H](O)CC2)n1` [UNC4338A], the IC50 on Axl [3] was determined as 42 nM; on Tyro3 [4] it was 20 nM.

For the compound `CCCCNc1ncc(-c2ccc(CC3CCN(C(C)C)CC3)cn2)c(N[C@H]2CC[C@H](O)CC2)n1` [UNC4339A, trans-4-((2-(butylamino)-5-(5-((1-isopropylpiperidin-4-yl)methyl)pyridin-2-yl)pyrimidin-4-yl)amino)cyclohexan-1-ol], the IC50 was found to be 39 nM at Axl [3] and 22 nM at Tyro3 [4].

With `CCCCNc1ncc(C(=O)NCc2cncs2)c(N[C@H]2CC[C@H](O)CC2)n1` [UNC4344A], the IC50 amounted to 196 nM at Axl [3] and 276 nM at Tyro3 [4].

`CCCCNc1ncc(-c2cc(Nc3cccc(-c4ccccc4)c3)ncn2)c(N[C@H]2CC[C@H](O)CC2)n1` [UNC4353A]: the figures for the IC50 on Axl [3] and at Tyro3 [4] were 30000 nM and 15100 nM, respectively.

On to `CCCCNc1ncc(-c2ccc(C3=CCNCC3)cn2)c(N[C@H]2CC[C@H](O)CC2)n1` [UNC4354A], for which the results for the IC50 at Axl [3] and on Tyro3 [4] were 27 nM and 24 nM, respectively.

`CCCCNc1ncc(-c2ccc(C3=CCN(C(C)C)CC3)cn2)c(N[C@H]2CC[C@H](O)CC2)n1` [UNC4358A]: the IC50 at Axl [3] came to 24 nM; at Tyro3 [4], 42 nM.

Consider `CCCCNc1ncc(-c2ccc(CC3CCNC3)cn2)c(N[C@H]2CC[C@H](O)CC2)n1` (stereo partly drawn) [UNC4386A, trans-4-((2-(butylamino)-5-(5-(pyrrolidin-3-ylmethyl)pyridin-2-yl)pyrimidin-4-yl)amino)cyclohexan-1-ol], for which the IC50 at Axl [3] and at Tyro3 [4] was 53 nM in each case.

Take `CCCCNc1ncc(-c2ccc(C3=CCC(CN(C)C)CC3)cn2)c(N[C@H]2CC[C@H](O)CC2)n1` (stereo partly shown) [UNC4387A]: the IC50 was 320 nM on Axl [3] and 488 nM on Tyro3 [4].

What is called IC50 is the concentration needed to halve the response being measured.
